In article PMC11310081, “Deep-learning-enabled antibiotic discovery through molecular de-extinction” (Nature Biomedical Engineering, 2024):
Converted amounts (≈) assume the structure as drawn. Peptide text beside a SMILES is read from it.

Experiments:
[1] = tested on: K. pneumoniae ATCC 13883; type: cell-based, Klebsiella pneumoniae; conditions: ATCC 13883, 20 h
Text: (§1) The following Gram-negative bacteria were used in our study: A. baumannii ATCC 19606, E. coli ATCC 11775, E. coli AIC221 (E. coli MG1655 phnE_2::FRT), E. coli AIC222 (E. coli MG1655 pmrA53 phnE_2::FRT (colistin resistant)), K. pneumoniae ATCC 13883, P. aeruginosa PAO1 and P. aeruginosa PA14. The following Gram-positive bacteria were also used in our study: S. aureus ATCC 12600, S. aureus ATCC BAA-1556 (methicillin-resistant strain), E. faecalis ATCC 700802 (vancomycin-resistant strain) and E. faecium ATCC 700221 (vancomycin-resistant strain). Bacteria were grown from frozen stocks and plated on Luria–Bertani (LB) or Pseudomonas isolation agar plates (P. aeruginosa strains) and incubated overnight at 37 °C. After the incubation period, a single colony was transferred to 5 ml of LB medium, and cultures were incubated overnight (16 h) at 37 °C. The following day, an inoculum was prepared by diluting the overnight cultures 1:100 in 5 ml of the respective media and incubating them at 37 °C until bacteria reached logarithmic phase (OD600 = 0.3–0.5).
(§2) The in vitro antimicrobial activity of the peptides was assessed by using the broth microdilution assay. […] Aqueous solutions of the peptides were added to the plate at concentrations ranging from 1 to 64 μmol l^−1. […] The optical density of the plates was measured at 600 nm using a spectrophotometer. All assays were done as three biological replicates.

[2] = tested on: HEK293T cells; conditions: 24 h
Experimental: HEK293T cells were obtained from the American Type Culture Collection (CRL-3216). The cells were cultured in high-glucose Dulbecco’s modified Eagle’s medium supplemented with 1% penicillin and streptomycin (antibiotics) and 10% fetal bovine serum and grown at 37 °C in a humidified atmosphere containing 5% CO2.
One day before the experiment, an aliquot of 100 μl of the cells at 50,000 cells per ml was seeded into each well of the cell-treated 96-well plates used in the experiment (that is, 5,000 cells per well). […] After the incubation period, we performed the 3-(4,5-dimethylthiazol-2-yl)-2,5-diphenyltetrazolium bromide tetrazolium reduction assay (MTT assay)[53]. The MTT reagent was dissolved at 0.5 mg ml^−1 in medium without phenol red and was used to replace cell culture supernatants containing the peptides (100 μl per well), and the samples were incubated for 4 h at 37 °C in a humidified atmosphere containing 5% CO2 yielding the insoluble formazan salt. The resulting salts were then resuspended in hydrochloric acid (0.04 mol l^−1) in anhydrous isopropanol and quantified by spectrophotometric measurements of absorbance at 570 nm. All assays were done as three biological replicates.
Unless otherwise stated, all assays were performed in three independent biological replicates as indicated in each figure legend and Methods sections. The cytotoxic activities values were estimated using non-linear regression based on the range of concentrations screened and were shown as the values that cause lysis of 50% of the cells in the experiment. Two technical replicates were performed in the cytotoxicity assays within each of the three biological replicates.

[3] = tested on: 11 clinically relevant bacterial pathogens; type: cell-based; conditions: Supplementary Dataset 2; against the 11 pathogens tested
Text: as §1, §2

[4] = tested on: A. baumannii ATCC 19606; type: cell-based, Acinetobacter baumannii; conditions: ATCC 19606, 20 h
Text: as §1, §2

[5] = tested on: E. coli ATCC 11775; type: cell-based, Escherichia coli; conditions: ATCC 11775, 20 h
Text: as §1, §2

[6] = tested on: E. coli AIC221; type: cell-based, Escherichia coli; conditions: AIC221, 20 h
Text: as §1, §2

[7] = tested on: E. faecium ATCC 700221 (vancomycin-resistant strain); type: cell-based, Enterococcus faecium; conditions: ATCC 700221, 20 h
Text: as §1, §2

[8] = tested on: S. aureus ATCC BAA-1556 (methicillin-resistant strain); type: cell-based, Staphylococcus aureus; conditions: ATCC BAA-1556, 20 h
Text: as §1, §2

| Compound | Minimal inhibitory concentration, K. pneumoniae ATCC133883 [1] [µM] | CC50 [2] [µM] | TI (therapeutic index) [2] | Active or Inactive [3] | Minimal inhibitory concentration, A. baumannii ATCC19606 [4] [µM] | Minimal inhibitory concentration, E. coli ATCC11775 [5] [µM] | Minimal inhibitory concentration, E. coli AIC221 [6] [µM] | Minimal inhibitory concentration, E. faecium ATCC700221-VRE [7] [µM] | Minimal inhibitory concentration, S. aureus ATCC BAA-1556-MRSA [8] [µM] |
| --- | --- | --- | --- | --- | --- | --- | --- | --- | --- |
| CC[C@H](C)[C@H](NC(=O)[C@H](CCCCN)NC(=O)[C@@H](NC(=O)[C@H](Cc1c[nH]c2ccccc12)NC(=O)[C@H](CCCCN)NC(=O)[C@@H](N)CCCCN)[C@@H](C)O)C(=O)N[C@@H](Cc1ccc(O)cc1)C(=O)N[C@@H](CO)C(=O)N1CCC[C@H]1C(=O)N[C@@H](CC(C)C)C(=O)N[C@@H](CO)C(=O)N[C@@H](CC(C)C)C(=O)O [Smilodin-1] (H-KKWTKIYSPLSL-OH; N-terminus and C-terminus assumed) | 64 (≈ 93.7 µg/mL) | > 128 | > 2 | Active | – | – | – | – | – |
| CC[C@H](C)[C@H](NC(=O)[C@H](Cc1ccccc1)NC(=O)[C@@H](N)CCCCN)C(=O)N[C@@H](CC(C)C)C(=O)N[C@@H](CC(N)=O)C(=O)N[C@@H](Cc1ccccc1)C(=O)N[C@@H](CCCCN)C(=O)N[C@H](C(=O)N1CCC[C@H]1C(=O)N[C@H](C(=O)N[C@@H](CO)C(=O)N[C@@H](Cc1ccccc1)C(=O)N[C@@H](CCCCN)C(=O)O)[C@@H](C)CC)[C@@H](C)CC [Pinguinusin-1] (H-KFILNFKIPISFK-OH; N-terminus and C-terminus assumed) | 16 (≈ 25.5 µg/mL) | > 128 | – | Active | 32 (≈ 51 µg/mL) | 16 (≈ 25.5 µg/mL) | 4 (≈ 6.38 µg/mL) | – | – |
| CC[C@H](C)[C@H](NC(=O)[C@H](CCCCN)NC(=O)[C@H](CO)NC(=O)[C@H](CC(N)=O)NC(=O)[C@H](Cc1ccccc1)NC(=O)[C@H](Cc1c[nH]cn1)NC(=O)[C@H](Cc1ccccc1)NC(=O)[C@@H](N)Cc1c[nH]c2ccccc12)C(=O)N[C@@H](CC(C)C)C(=O)N[C@@H](CC(C)C)C(=O)N[C@@H](CC(C)C)C(=O)N[C@H](C(=O)NCC(=O)N[C@@H](CC(C)C)C(=O)O)[C@@H](C)O [Mylodonin-1] (H-WFHFNSKILLLTGL-OH; N-terminus and C-terminus assumed) | – | > 128 | > 16 | Active | – | – | – | 8 (≈ 13.5 µg/mL) | – |
| CC[C@H](C)[C@H](NC(=O)[C@@H](NC(=O)[C@H](Cc1c[nH]c2ccccc12)NC(=O)[C@H](CCCCN)NC(=O)[C@@H](N)CCCCN)C(C)C)C(=O)N[C@@H](CCCCN)C(=O)N[C@@H](CO)C(=O)N[C@H](C(=O)N[C@H](C(=O)N[C@@H](Cc1ccccc1)C(=O)N[C@@H](Cc1ccccc1)C(=O)N[C@@H](CCCCN)C(=O)O)C(C)C)C(C)C [Hesperelin-2] (H-KKWVIKSVVFFK-OH; N-terminus and C-terminus assumed) | 32 (≈ 48.3 µg/mL) | > 128 | – | Active | 16 (≈ 24.1 µg/mL) | – | 8 (≈ 12.1 µg/mL) | 8 (≈ 12.1 µg/mL) | 16 (≈ 24.1 µg/mL) |
| CC[C@H](C)[C@H](NC(=O)[C@H](CCCCN)NC(=O)[C@H](CC(C)C)NC(=O)[C@@H](NC(=O)[C@@H](N)CCCCN)[C@@H](C)O)C(=O)N[C@H](C(=O)N[C@@H](CCCNC(=N)N)C(=O)N[C@@H](CC(C)C)C(=O)N[C@@H](CC(C)C)C(=O)N[C@@H](Cc1ccccc1)C(=O)O)[C@@H](C)CC [Mammuthusin-3] (H-KTLKIIRLLF-OH; N-terminus and C-terminus assumed) | – | > 128 | – | Active | 32 (≈ 39.8 µg/mL) | – | 16 (≈ 19.9 µg/mL) | – | – |
| CC[C@H](C)[C@H](NC(=O)[C@H](Cc1ccccc1)NC(=O)[C@H](CC(N)=O)NC(=O)[C@@H](NC(=O)[C@@H](NC(=O)[C@H](Cc1c[nH]cn1)NC(=O)[C@@H](N)CC(C)C)[C@@H](C)O)[C@@H](C)CC)C(=O)N[C@H](C(=O)N[C@@H](CCCCN)C(=O)N[C@@H](CO)C(=O)N[C@@H](CC(C)C)C(=O)N[C@@H](CC(C)C)C(=O)N[C@@H](CC(C)C)C(=O)O)[C@@H](C)CC [Bisonin-1] (H-LHTINFIIKSLLL-OH; N-terminus and C-terminus assumed) | – | > 128 | > 8 | Active | – | – | – | 16 (≈ 24.4 µg/mL) | – |
| CC[C@H](C)[C@H](NC(=O)[C@H](CCCCN)NC(=O)[C@@H](NC(=O)[C@H](Cc1c[nH]c2ccccc12)NC(=O)[C@@H](N)CCCCN)[C@@H](C)O)C(=O)N[C@@H](Cc1ccc(O)cc1)C(=O)N[C@@H](CC(C)C)C(=O)N1CCC[C@H]1C(=O)N[C@@H](CC(C)C)C(=O)N[C@@H](CC(C)C)C(=O)N[C@@H](CC(C)C)C(=O)N1CCC[C@H]1C(=O)N[C@@H](CC(C)C)C(=O)O [Bisonin-2] (H-KWTKIYLPLLLPL-OH; N-terminus and C-terminus assumed) | – | > 128 | – | Active | 8 (≈ 12.8 µg/mL) | – | – | 8 (≈ 12.8 µg/mL) | – |
| CC[C@H](C)[C@H](N)C(=O)N[C@@H](CO)C(=O)N[C@@H](CC(C)C)C(=O)N[C@@H](Cc1ccccc1)C(=O)N[C@H](C(=O)N[C@@H](CCCNC(=N)N)C(=O)N1CCC[C@H]1C(=O)N[C@@H](CC(C)C)C(=O)N[C@@H](C)C(=O)N[C@@H](CC(C)C)C(=O)NCC(=O)N[C@H](C(=O)N[C@@H](CCCNC(=N)N)C(=O)N[C@@H](CC(C)C)C(=O)O)C(C)C)[C@@H](C)CC [Psephotellin-1] (H-ISLFIRPLALGVRL-OH; N-terminus and C-terminus assumed) | 32 (≈ 50.2 µg/mL) | > 128 | – | Active | 32 (≈ 50.2 µg/mL) | 16 (≈ 25.1 µg/mL) | 16 (≈ 25.1 µg/mL) | – | – |
| CC[C@H](C)[C@H](NC(=O)[C@H](CC(C)C)NC(=O)[C@H](CCCNC(=N)N)NC(=O)[C@H](Cc1c[nH]c2ccccc12)NC(=O)[C@H](CC(C)C)NC(=O)[C@@H](NC(=O)[C@H](CCCNC(=N)N)NC(=O)[C@H](CCC(N)=O)NC(=O)[C@H](Cc1ccc(O)cc1)NC(=O)[C@H](CC(C)C)NC(=O)[C@@H](N)CCCCN)[C@@H](C)CC)C(=O)N[C@@H](CO)C(=O)N[C@@H](CCC(=O)O)C(=O)N[C@@H](CC(C)C)C(=O)O [Equusin-3] (H-KLYQRILWRLISEL-OH; N-terminus and C-terminus assumed) | – | > 128 | – | Active | – | 16 (≈ 29.3 µg/mL) | 4 (≈ 7.32 µg/mL) | 8 (≈ 14.6 µg/mL) | – |
| CC[C@H](C)[C@H](NC(=O)[C@@H](NC(=O)[C@H](CCSC)NC(=O)[C@@H](N)Cc1c[nH]c2ccccc12)[C@@H](C)O)C(=O)N[C@@H](Cc1c[nH]cn1)C(=O)N[C@@H](C)C(=O)N[C@@H](CC(C)C)C(=O)N[C@@H](CCCCN)C(=O)N[C@@H](CC(C)C)C(=O)N[C@@H](CO)C(=O)N[C@@H](CC(C)C)C(=O)N[C@@H](CO)C(=O)N[C@@H](Cc1ccccc1)C(=O)N[C@@H](CCCCN)C(=O)N[C@@H](CC(C)C)C(=O)O [Mammutin-1] (H-WMTIHALKLSLSFKL-OH; N-terminus and C-terminus assumed) | – | > 128 | > 64 | Active | – | – | – | 2 (≈ 3.58 µg/mL) | – |
